According to US6509163B1, “Methods of screening modulators of mammalian P2X7 purinergic receptors” (Glaxo Group Limited, priority 1997, dated 2003):

Target: T1, P2X7ΔC receptor (Rattus norvegicus, UniProt Q64663)
T1 construct: the resulting protein (P2X7ΔC) was P2X7 (1-418); expressed in transfected cells; host or cells: HEK293 (transient)
T1 sequence (Q64663 1-418): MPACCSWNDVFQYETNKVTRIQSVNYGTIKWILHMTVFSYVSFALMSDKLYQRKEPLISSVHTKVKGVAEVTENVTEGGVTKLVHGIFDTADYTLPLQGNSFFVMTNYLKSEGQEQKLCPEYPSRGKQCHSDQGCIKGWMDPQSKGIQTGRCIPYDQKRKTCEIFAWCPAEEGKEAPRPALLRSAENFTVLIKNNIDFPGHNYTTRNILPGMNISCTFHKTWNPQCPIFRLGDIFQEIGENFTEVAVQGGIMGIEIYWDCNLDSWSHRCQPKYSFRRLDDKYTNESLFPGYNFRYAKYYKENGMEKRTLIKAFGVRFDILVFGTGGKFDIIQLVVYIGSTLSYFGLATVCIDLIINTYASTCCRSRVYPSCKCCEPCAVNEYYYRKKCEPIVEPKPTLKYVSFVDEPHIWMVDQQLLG
Experiment: YO-PRO-1 uptake in HEK cells expressing P2X7ΔC receptor
Assay type: cell-based
Conditions: low divalent solution, BzATP 300 μM
Procedure: YO-PRO-1 (10 μM; Molecular Probes, Eugene, Oreg.) was added to the superfusion fluid during electrophysiological recordings 3 to 6 min before switching to low divalent solution and washed out upon switching back to normal divalent solution, after which the fluorescent lamp was turned on and cells were examined with a fluorescein isothiocyanate filter. For cell counts, 500 cells per cover slip were counted in each case.

uptake of YO-PRO-1 induced by BzATP: no uptake of YO-PRO-1 was induced
Compound: Nc1ncnc2c1ncn2[C@@H]1O[C@H](COP(=O)(O)OP(=O)(O)OP(=O)(O)O)[C@@H](OC(=O)c2ccc(C(=O)c3ccccc3)cc2)[C@H]1O [BzATP, 3′-O-(4-benzoyl)benzoyl ATP]
